Here are results for eight molecules from US5464617A, “β-lactam compounds” (Hoffmann-La Roche Inc., priority 1994, dated 1995).

Structures can show the parent of a compound that is named as a salt.

Test [1] has as its system Citrobacter freundii 1982. The test can be described thus: MIC in vitro of a 1:4 combination of ceftriaxone with a compound of formula I (Test D). Particulars: Table 4; test D, 1:4 combination of ceftriaxone with the compound. The class given is cell-based. As to the method: The minimum inhibitory concentration in vitro ([…]) of a 1:4 combination of ceftriaxone with a compound of formula I against Citrobacter freundii 1982 was measured and compiled in Table 2 hereinafter.

The subject of test [2] is E. coli 1346. In words: Antibacterial activity of the products per se, serial dilution method in liquid medium (Test E). The class given is cell-based. The note with it: Table 4; test E, product per se. The source says: The antibacterial activity of the products per se is illustrated on the basis of Table 3 hereinafter, the minimum inhibitory concentration […] in vitro against E. coli 1346 being determined using the serial dilution method in liquid medium: […]

Regarding `CC(=O)N1C[C@H]2OC(CSc3ccncc3)=C(C(=O)O)N3C(=O)[C@@H]1[C@@H]23` [32(a), (1aS,3aR,6bS)-2-Acetyl-5-(pyridin-4-ylsulphanylmethyl)-1-oxo-1,1a,2,3,3a,6b-hexahydro-4-oxa-2,6a-diazacyclobut[cd]indene-6-carboxylic acid sodium salt], the “MIC C. freundii 1982 (D)” value in test [1] came to 16 µg/mL. In test [2], the “MIC E. coli 1346 (E)” value is greater than 32 µg/mL.

On to `CC(=O)N1C[C@H]2CC(CN=[N+]=[N-])=C(C(=O)O)N3C(=O)[C@@H]1[C@@H]23` [83(a), (1aS,3aR,6bR)-2-Acetyl-5-azidomethyl-1-oxo-1a,2,3,3a,4,6b-hexahydro-1H-2,6a-diazacyclobut[cd]indene-6-carboxylic acid sodium salt], for which the “MIC C. freundii 1982 (D)” value in test [1] amounted to 0.5 µg/mL. Also, in test [2], the “MIC E. coli 1346 (E)” value is 2 µg/mL.

Take `O=C(NC1CC1)OCC1=C(C(=O)O)N2C(=O)[C@H]3NC[C@@H](C1)[C@H]32` [Example 93, (1aS,3aR,6bR)-5-Cyclopropylcarbamoyloxymethyl-1-oxo-1a,2,3,3a,4,6b-hexahydro-1H-2,6a-diazacyclobut[cd]indene-6-carboxylicacid trifluoroacetate]: the “MIC C. freundii 1982 (D)” value in test [1] is 2 µg/mL. Besides, the “MIC E. coli 1346 (E)” value in test [2] came out at 8 µg/mL.

Regarding `CC(=O)NCC1=C(C(=O)O)N2C(=O)[C@@H]3[C@H]2[C@H](C1)CN3C(=O)C(F)(F)F` [Example 86, (1aS,3aR,6bR)-5-Acetylaminomethyl-1-oxo-2-trifluoroacetyl-1a,2,3,3a,4,6b-hexahydro-1H-2,6a-diazacyclobut[cd]indene-6-carboxylic acid sodium salt], the “MIC C. freundii 1982 (D)” value in test [1] amounted to 2 µg/mL. The “MIC E. coli 1346 (E)” value in test [2] came out at 16 µg/mL.

For the molecule `Cc1nnc(SCC2=C(C(=O)O)N3C(=O)[C@@H]4[C@H]3[C@H](C2)CN4C(=O)C(F)(F)F)s1` [65(b), (1aS,3aR,6bR)-5-(S-Methyl-1,3,4-thiadiazol-2-ylsulphanylmethyl)-1-oxo-2-trifluoroacetyl-1a,2,3,3a,4,6b-hexahydro-1H-2,6a-diazacyclobut[cd]indene-6-carboxylic acid sodium salt], in test [1], the “MIC C. freundii 1982 (D)” value turned out to be 1 µg/mL. The “MIC E. coli 1346 (E)” value in test [2] worked out at 2 µg/mL.

On to `O=C(O)C1=C(Sc2ccncc2)C[C@@H]2CN(C(=O)Nc3ccc(O)cc3)[C@@H]3C(=O)N1[C@H]23` [3(o), (1aS,3aR,6bR)-2-(4-Hydroxy-phenylcarbamoyl)-1-oxo-5-(pyridin-4-ylsulphanyl)-1a,2,3,3a,4,6b-hexahydro-1H-2,6a-diazacyclobut[cd]indene-6-carboxylic acid sodium salt], for which, in test [1], the “MIC C. freundii 1982 (D)” value worked out at 1 µg/mL. The “MIC E. coli 1346 (E)” value in test [2] is greater than 32 µg/mL.

As for `Cc1nnc(SCC2=C(C(=O)O)N3C(=O)[C@@H]4[C@H]3[C@@H](CN4C(=O)Nc3ccc(C(N)=O)cc3)O2)s1` [31(b), (1aS,3aR,6bS)-2-(4-Carbamoyl-phenylcarbamoyl)-5-(S-methyl-1,3,4-thiadiazol-2-ylsulphanylmethyl)-1-oxo-1,1a,2,3,3a,6b-hexahydro-4-oxa-2,6a-diazacyclobut[cd]indene-6-carboxylic acid sodium salt], the “MIC C. freundii 1982 (D)” value in test [1] was determined as 0.2 µg/mL. For the same molecule, the “MIC E. coli 1346 (E)” value in test [2] was determined as 8 µg/mL.

Regarding `CS(=O)(=O)N1C[C@H]2CC(COC(N)=O)=C(C(=O)O)N3C(=O)[C@@H]1[C@@H]23` [58(c), (1aS,3aR,6bR)-5-Carbamoyloxymethyl-2-methylsulphonyl-1-oxo-1a,2,3,3a,4,6b-hexahydro-1H-2,6a-diazacyclobut[cd]indene-6-carboxylic acid sodium salt], the “MIC C. freundii 1982 (D)” value in test [1] was determined as 0.5 µg/mL. Further, in test [2], the “MIC E. coli 1346 (E)” value came out at 0.5 µg/mL.
